Data as given in patent publication US6610304B1, “Liposomes containing multiple branch peptide constructions for use against human immunodeficiency virus” (priority 1997, dated 2003).

Columns and labels:
[1] = system: HIV-1 Hx10 clone; assay: Fusion assay: inhibition of syncytium formation; assay type: cell-based; settings: concentration 10^−6 M, C8166 cells
Experimental: C8166 cells were incubated at 37° C. with HIV-1 Hx10 clone (B. Hahn, University of Alabama, USA) in the presence of test substances (SPC3, SPC RL, empty liposomes of 110 nm and 250 nm average size, and dialysed and non-dialysed liposomes of those sizes containing SPC3) and in the absence of any test substance (control). The samples were inspected by phase contrast microscopy and syncytia were scored after 48 and 72 hours of incubation in 96-well flat-bottomed cultured plates. Experiments were performed three times in duplicate and identical results were obtained. The presence of syncytia is indicated by + signs. allocated as follows: […]

[2] = system: HIV-1 Hx10clone; assay: Infection assay: inhibition of cell infection (cell-free p24 by ELISA); assay type: cell-based; settings: C8166 cells, supernatant ELISA, no unit or concentration given
Experimental: C8166 cells were washed once in RPMI medium and then infected with HIV-1 Hx10clone by incubation at 37° C. for 2 hours in the presence of test substances (SPC3, SPC RL, empty liposomes of 110 nm and 250 nm average size, and dialysed and non-dialysed liposomes of those sizes containing SPC3) and in the absence of any test substance (control). After incubation, the virus was removed and the cells were incubated with fresh medium at 37° C. in the presence of the test substances or in the absence of any test substance (control). Infections and cell cultures were in 96-well culture plates. The production of HIV was monitored by measuring the concentration of cell-free p24 in the supernatant by ELISA, as described by Gluschankof et al., 1997, using the AMPAK amplification kit (DAKO. Trappes, France). The results are shown in Table 2 below, and the day 4 results are also shown graphically in the accompanying drawing.

[3] = Toxicity, intravenous injection into mice; assay type: in vivo; settings: 50 mg/kg of SPC3, immediately, after 12 or 24 hours
Experimental: To determine toxicity, the 250 nm dialysed liposomes containing SPC3 were injected intravenously into 8 mice at a dose of 50 mg/kg of SPC3.

Compound	Syncitia Formation ([1]; Day 2 post-infection)	Syncitia Formation ([1]; Day 3 post-infection)	p24 production ([2]; Day 3 post-infection)	p24 production ([2]; Day 4 post-infection)	symptoms of toxicity [3]
(RQGYSPL)8-(K)4-(K)2-K-βA-OH [SPC RL]	+/− (+/−=>95 % decrease)	+/− (+/−=>95 % decrease)	0.441	0.463	–
C[C@H](NC(=O)[C@H](CCCNC(=N)N)NC(=O)CNC(=O)[C@@H]1CCCN1C(=O)CN)C(=O)N[C@@H](Cc1ccccc1)C(=O)NCCCC[C@H](NC(=O)[C@H](Cc1ccccc1)NC(=O)[C@H](C)NC(=O)[C@H](CCCNC(=N)N)NC(=O)CNC(=O)[C@@H]1CCCN1C(=O)CN)C(=O)NCCCC[C@H](NC(=O)[C@H](CCCCNC(=O)[C@H](Cc1ccccc1)NC(=O)[C@H](C)NC(=O)[C@H](CCCNC(=N)N)NC(=O)CNC(=O)[C@@H]1CCCN1C(=O)CN)NC(=O)[C@H](Cc1ccccc1)NC(=O)[C@H](C)NC(=O)[C@H](CCCNC(=N)N)NC(=O)CNC(=O)[C@@H]1CCCN1C(=O)CN)C(=O)NCCCC[C@H](NC(=O)[C@H](CCCCNC(=O)[C@H](CCCCNC(=O)[C@H](Cc1ccccc1)NC(=O)[C@H](C)NC(=O)[C@H](CCCNC(=N)N)NC(=O)CNC(=O)[C@@H]1CCCN1C(=O)CN)NC(=O)[C@H](Cc1ccccc1)NC(=O)[C@H](C)NC(=O)[C@H](CCCNC(=N)N)NC(=O)CNC(=O)[C@@H]1CCCN1C(=O)CN)NC(=O)[C@H](CCCCNC(=O)[C@H](Cc1ccccc1)NC(=O)[C@H](C)NC(=O)[C@H](CCCNC(=N)N)NC(=O)CNC(=O)[C@@H]1CCCN1C(=O)CN)NC(=O)[C@H](Cc1ccccc1)NC(=O)[C@H](C)NC(=O)[C@H](CCCNC(=N)N)NC(=O)CNC(=O)[C@@H]1CCCN1C(=O)CN)C(=O)NCCC(=O)O [SPC3, (GPGRAF)8-(K)4-(K)2-K-βA-OH]	–	–	–	–	symptoms of toxicity were observed
